Assay [1] has as its target T1, AChE from Electrophorus electricus (eelAChE) type VI-S (Electrophorus electricus, UniProt O42275).
T1 construct: purchased Sigma-Aldrich type VI-S
Put plainly: biochemical. The following applies: for inhibition: pH 8, 10 μL of 1.0 mM compound stock in 100 μL reaction mixture, read-out: % Inhibition eelAChE-ICER; for mechanism of inhibition: double-reciprocal (Lineweaver-Burk) plots; for IC50 / Ki: eelAChE-ICER; for IC50: 20 μL ACh stock 500 μM in 100 μL reaction mixture, non-linear regression; for Ki: ACh 10 to 150 μM, inhibitor 0, 10, 50 and 75 μM, Lineweaver-Burk replot, read-out: Ki (steady-state inhibition constant). How it is done:
AChE from Electrophorus electricus (type VI-S) was immobilized in a fused-silica capillary tube (eelAChE-ICER) according to a previously reported protocol (Vanzolini et al., [2013]). An enzyme solution containing 2 units/mL eelAChE was used in the immobilization procedure. The LC-MS system was set up for the eelAChE-ICER as previously described (Vanzolini et al., [2013]). The mobile phase (15 mM ammonium acetate solution, pH 8.0) was infused by pump 1 at a flow rate of 50 μL/min and pump 2 delivered acetonitrile after the eelAChE-ICER at a flow rate of 50 μL/min. IT-MS parameters were: 3,713 V capillary voltage, 500 V end plate voltage, […] drying gas, 300°C drying temperature and 30 psi nebulizer. In addition, ACh ([M+H]^+ m/z 146) and Ch ([M+H]^+ m/z 104), were analyzed by MS operating in the manual MS^n mode under positive ionization (scan 50–550 m/z). Enzymatic activity was quantified using a Ch standard external calibration curve prepared in 15 mM ammonium acetate solution, pH 8.0 with the final concentration ranging from 5 to 350 μM. An aliquot (10 μL) of each solution was injected in triplicate into the system using an empty fused silica capillary. The calibration curve was obtained by plotting the Ch [M+H]^+ m/z 104 area against the injected Ch concentration.
Stock solutions of each compound were prepared in methanol at 1.0 mM. The enzymatic activity of eelAChE-ICER was measured in the presence and absence of each compound. Reactions mixtures were prepared by mixing 20 μL of ACh stock solution (350 μM, in 15mM ammonium acetate solution, pH 5.0) with 10 μL of methanol or stock solution of compounds (1.0 mM) and 70 μL ammonium acetate solution (15mM, pH 8.0). Each reaction mixture (10 μL) was injected into the LC-MS system. The percentage of inhibition (%I) was calculated by comparing the product peak area in the presence of tested compound with positive control (absence of inhibitors).
Final volumes were completed with 70 μL ammonium acetate solution (15mM, pH 8.0) and each reaction mixture (10 μL) was injected into the LC-MS system. The inhibition curve was obtained for each sample by plotting the percentage of inhibition vs. each corresponding inhibitor concentration, and the IC50 values were achieved by non-linear regression analysis using GraphPad Prism 5 software.
For this purpose, the eelAChE-ICER activity was evaluated under different concentrations of ACh (10 to 150 μM) and at the fixed concentration of derivative 1a and 1b (0, 10, 50, and 75 μM). Lineweaver-Burk plots were used to determine the action mechanism for the inhibitors.
A linear replot was obtained, and the division quotient between the linear and angular coefficients provided the Ki values.

The test system of another assay is AChE. Also on record: method as in Loizzo et al., 2008. The conditions noted are these: AChE inhibition; ref Loizzo et al., 2008; cited from earlier work.
Setting [2] is: 20 μL ACh stock 350 μM, ammonium acetate 15 mM pH 8.0.

The source of these data is paper PMC6760013, “Synthesis and Inhibition Evaluation of New Benzyltetrahydroprotoberberine Alkaloids Designed as Acetylcholinesterase Inhibitors” (Frontiers in Chemistry, 2019).

By inhibition is commonly meant the share of the control response that was lost under treatment. The term IC50 denotes the midpoint of a concentration-inhibition curve. Usually Ki stands for the equilibrium dissociation constant of an inhibitor or competing ligand from its target.

T1 sequence (O42275 24-633): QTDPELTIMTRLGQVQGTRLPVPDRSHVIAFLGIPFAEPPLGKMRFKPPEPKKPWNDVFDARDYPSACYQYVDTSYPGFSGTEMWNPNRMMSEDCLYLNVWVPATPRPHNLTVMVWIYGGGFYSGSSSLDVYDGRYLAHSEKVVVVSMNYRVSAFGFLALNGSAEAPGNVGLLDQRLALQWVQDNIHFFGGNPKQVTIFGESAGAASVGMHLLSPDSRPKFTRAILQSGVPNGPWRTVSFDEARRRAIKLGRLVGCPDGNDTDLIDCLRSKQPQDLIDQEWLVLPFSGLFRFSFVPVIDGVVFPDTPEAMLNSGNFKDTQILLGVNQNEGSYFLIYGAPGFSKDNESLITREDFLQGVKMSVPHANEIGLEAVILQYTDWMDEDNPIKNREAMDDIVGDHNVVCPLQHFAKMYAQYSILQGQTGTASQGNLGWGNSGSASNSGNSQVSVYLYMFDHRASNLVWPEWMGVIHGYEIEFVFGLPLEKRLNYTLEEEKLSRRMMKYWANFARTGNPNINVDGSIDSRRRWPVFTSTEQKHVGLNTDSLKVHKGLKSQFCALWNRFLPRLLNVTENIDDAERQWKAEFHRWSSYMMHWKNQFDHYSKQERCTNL

On to `COc1cc2c(cc1OCc1ccccc1)[C@@H]1Cc3ccc(OCc4ccccc4)c(OC)c3CN1CC2` [1e, (S)-O, O-dibenzylstepholidine], for which, in assay [1] (setting [2]), the inhibition came out at 43.6 ± 2.54%.
As for `COc1cc2c(cc1O)[C@@H]1Cc3ccc(O)c(OC)c3C[N@@+]1(Cc1ccccc1)CC2` [1b, (7S,13aS)-7-benzylstepholidine], in assay [1], the mechanism of inhibition result is recorded as “non-competitive”, the IC50 is 51.9 ± 1 µM and the Ki turned out to be 4.7 µM. Besides, in assay [1] (setting [2]), the inhibition was 90.5 ± 2.48%.
For `COc1cc2c(cc1OCc1ccccc1)[C@@H]1Cc3ccc(O)c(OC)c3CN1CC2` [1c, (S)-2-O-benzylstepholidine], the inhibition in assay [1] (setting [2]) came out at 35.2 ± 5.02%.
Regarding `COc1cc2c(cc1O)[C@@H]1Cc3ccc(O)c(OC)c3CN1CC2` [Stepholidine, stepholidine, reference compound], in assay [1] (10 μL of 1.0 mM compound stock in 100 μL reaction mixture, 20 μL ACh stock 350 μM, ammonium acetate 15 mM pH 8.0), the “% Inhibition eelAChE-ICER” value came out at 40.2 ± 1.65%. In addition, the inhibition in assay [1] (setting [2]) was less than 50%. Besides, the IC50 in the assay with AChE was more than 100 µM.
`COc1cc2c(cc1O)C1Cc3ccc(O)c(OC)c3C[N+]1(C)CC2` (stereo not shown) [N-methyl stepholidine]: the IC50 with AChE is 31.3 µM.
On to `COc1cc2c(cc1O)-c1cc3ccc(O)c(OC)c3c[n+]1CC2` [stepharanine], for which the IC50 in the assay on AChE was 14.1 µM.
For the compound `COc1cc2c(cc1O)[C@@H]1Cc3ccc(OCc4ccccc4)c(OC)c3CN1CC2` [1d, (S)-10-O-benzylstepholidine], in assay [1] (setting [2]), the inhibition amounted to 46.3 ± 5.45%.
As to `COc1cc2c(cc1O)[C@@H]1Cc3ccc(O)c(OC)c3C[N@+]1(Cc1ccccc1)CC2` [1a, (7R,13aS)-7-benzylstepholidine], in assay [1], the mechanism of inhibition entry is listed as “non-competitive”, the IC50 was found to be 40.6 ± 1 µM and the Ki is 11.6 µM. The inhibition in assay [1] (setting [2]) was 90.1 ± 2.04%.
